Laboratory results from patent publication US10538555B2, “Macrocyclic inhibitors of the PD-1/PD-L1 and CD80(B7-1)/PD-L1 protein/protein interactions” (BRISTOL-MYERS SQUIBB COMPANY, priority 2014, dated 2020).
pIC50: −log10 of the molar value. Where a SMILES comes first, the peptide text is derived from it. Bridges are numbered along the chain shown (N, C = ends). [ ]: non-standard residue; d: D form. ξ: configuration not given here. Trp(1-CH2COOH) = N[C@@H](Cc1cn(CC(=O)O)c2ccccc12)C(=O)O; Phe(3,4,5-F3) = N[C@@H](Cc1cc(F)c(F)c(F)c1)C(=O)O; NMePhe(4-F) = CN[C@@H](Cc1ccc(F)cc1)C(=O)O; d(cisHyp) = O=C(O)[C@H]1C[C@@H](O)CN1; Hyp = O=C(O)[C@@H]1C[C@@H](O)CN1; NMeF = CN[C@@H](Cc1ccccc1)C(=O)O; dPip(4-aza) = O=C(O)[C@H]1CNCCN1; dHyp = O=C(O)[C@H]1C[C@H](O)CN1; NMehSer = CN[C@@H](CCO)C(=O)O; NMeNle = CCCC[C@H](NC)C(=O)O; dPip = O=C(O)[C@H]1CCCCN1; hSer = N[C@@H](CCO)C(=O)O; NMeA = CN[C@@H](C)C(=O)O; Orn = NCCC[C@H](N)C(=O)O; dNMeA = CN[C@H](C)C(=O)O; dThz = O=C(O)[C@H]1CSCN1; Dab = NCC[C@H](N)C(=O)O; Dap = NC[C@H](N)C(=O)O; ξC = NC(CS)C(=O)O; Sar = CNCC(=O)O

The compounds below were run against T1, Human PD-L1/PD-1 (Homo sapiens, UniProt Q9NZQ7) (assay: HTRF Human PD-L1/PD-1 binding assay (PD-1-Ig/PD-L1-His)). Conditions: PD-L1-His 10 nM, PD-1-Ig 20 nM; class symbol; read-out: HTRF Human PD-L1/PD-1 Binding Assay IC50 Range.
T1 construct: TVMV protease cleavage site (C); made in house; host or cells: HEK293T cells
How it was run: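 Step 1: compound with PD-L1-His (10 nM final), 15 min. Step 2: PD-1-Ig (20 nM final), 15 min. Step 3: Eu-cryptate anti-Ig (1 nM) plus APC anti-His (20 nM), 30 min equilibration. Signal taken as 665 nm/620 nm ratio.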

T1 sequence (Q9NZQ7 with tags, fused parts or gaps): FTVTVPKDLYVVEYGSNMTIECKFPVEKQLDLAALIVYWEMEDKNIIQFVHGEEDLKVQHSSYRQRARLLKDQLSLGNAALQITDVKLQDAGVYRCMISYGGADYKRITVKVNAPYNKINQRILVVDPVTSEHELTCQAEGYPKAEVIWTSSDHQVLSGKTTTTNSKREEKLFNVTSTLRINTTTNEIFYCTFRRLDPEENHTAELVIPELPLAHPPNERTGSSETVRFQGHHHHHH

pIC50	Structure (SMILES)
8.00 to 9.00	CCCC[C@H]1C(=O)N2C[C@H](O)C[C@@H]2C(=O)N[C@@H](CC(=O)O)C(=O)N[C@@H](C(C)C)C(=O)N(C)[C@@H](Cc2ccccc2)C(=O)N[C@@H](CC(=O)O)C(=O)N2C[C@H](O)C[C@@H]2C(=O)N[C@@H](Cc2c[nH]c3ccccc23)C(=O)N[C@@H](Cc2ccc(O)cc2)C(=O)N[C@@H](CC(C)C)C(=O)N[C@H](C(=O)NCC(N)=O)CSCC(=O)N[C@@H](Cc2cc(F)c(F)c(F)c2)C(=O)N(C)[C@@H](Cc2ccccc2)C(=O)N1C [Example 9319] ({CH2CO}-[Phe(3,4,5-F3)][NMeF][NMeNle][d(cisHyp)]DV[NMeF]D[d(cisHyp)]WYLCG-NH2; thioether N-13)
8.00 to 9.00	CCCC[C@H]1C(=O)N(C)[C@@H](CCCC)C(=O)N[C@@H](CCCNC(=N)N)C(=O)NC(C(=O)NCC(N)=O)CSCC(=O)N[C@@H](Cc2ccc(O)cc2)C(=O)N(C)[C@@H](C)C(=O)N[C@@H](CC(N)=O)C(=O)N2CCC[C@H]2C(=O)N[C@@H](CC(N)=O)C(=O)N[C@@H](CC(C)C)C(=O)N2CCC[C@H]2C(=O)N[C@@H](Cc2c[nH]c3ccccc23)C(=O)N[C@@H](CCO)C(=O)N[C@@H](Cc2c[nH]c3ccccc23)C(=O)N1C (stereo partly drawn) [Example 9128] ({CH2CO}-Y[NMeA]NPNLPW[hSer]W[NMeNle][NMeNle]R[ξC]G-NH2; thioether N-14)
8.00 to 9.00	CCCC[C@H]1C(=O)N(C)[C@@H](CCCC)C(=O)N[C@@H](CCC(=O)O)C(=O)N[C@H](C(=O)NCC(N)=O)CSCC(=O)N[C@@H](Cc2ccc(O)cc2)C(=O)N(C)[C@@H](C)C(=O)N[C@@H](CC(N)=O)C(=O)N2CCC[C@H]2C(=O)N[C@@H](Cc2c[nH]cn2)C(=O)N[C@@H](CCC(N)=O)C(=O)N2C[C@H](O)C[C@H]2C(=O)N[C@@H](Cc2c[nH]c3ccccc23)C(=O)N[C@@H](CCN)C(=O)N[C@@H](Cc2c[nH]c3ccccc23)C(=O)N1C [Example 5223] ({CH2CO}-Y[NMeA]NPHQ[Hyp]W[Dab]W[NMeNle][NMeNle]ECG-NH2; thioether N-14)
8.00 to 9.00	CCCC[C@H]1C(=O)N2CCC[C@@H]2C(=O)N[C@@H](CC(=O)O)C(=O)N[C@@H](C(C)C)C(=O)N(C)[C@@H](Cc2ccccc2)C(=O)N[C@@H](CCCN)C(=O)N2C[C@H](O)C[C@@H]2C(=O)N[C@@H](Cc2c[nH]c3ccccc23)C(=O)N[C@@H](Cc2ccc(O)cc2)C(=O)N[C@@H](CCOC)C(=O)N[C@H](C(=O)NCC(N)=O)CSCC(=O)N[C@@H](Cc2cc(F)c(F)c(F)c2)C(=O)N(C)[C@@H](Cc2ccccc2)C(=O)N1C [Example 10182] ({CH2CO}-[Phe(3,4,5-F3)][NMeF][NMeNle][dP]DV[NMeF][Orn][d(cisHyp)]WY[hSer](Me)CG-NH2; thioether N-13)
8.00 to 9.00	CCCC[C@H]1C(=O)N2CCC[C@@H]2C(=O)N[C@@H](CC(=O)O)C(=O)N[C@@H](C(C)C)C(=O)N(C)[C@@H](Cc2ccccc2)C(=O)N[C@@H](Cc2ccc(O)cc2)C(=O)N2C[C@@H](O)C[C@@H]2C(=O)N[C@@H](Cc2c[nH]c3ccccc23)C(=O)N[C@@H](Cc2ccc(O)cc2)C(=O)N[C@@H](CC(C)C)C(=O)N[C@H](C(=O)NCC(N)=O)CSCC(=O)N[C@@H](Cc2cc(F)c(F)c(F)c2)C(=O)N(C)[C@@H](Cc2ccccc2)C(=O)N1C [Example 9287] ({CH2CO}-[Phe(3,4,5-F3)][NMeF][NMeNle][dP]DV[NMeF]Y[dHyp]WYLCG-NH2; thioether N-13)
8.00 to 9.00	CCCC[C@H]1C(=O)N2CCC[C@@H]2C(=O)N[C@@H](CC(=O)O)C(=O)N[C@@H](C(C)C)C(=O)N(C)[C@@H](Cc2ccccc2)C(=O)N[C@@H](Cc2ccc(O)cc2)C(=O)N2CCNC[C@@H]2C(=O)N[C@@H](Cc2c[nH]c3ccccc23)C(=O)N[C@@H](Cc2ccc(O)cc2)C(=O)N[C@@H](CC(C)C)C(=O)N[C@H](C(=O)NCC(N)=O)CSCC(=O)N[C@@H](Cc2cc(F)c(F)c(F)c2)C(=O)N(C)[C@@H](Cc2ccccc2)C(=O)N1C [Example 10100] ({CH2CO}-[Phe(3,4,5-F3)][NMeF][NMeNle][dP]DV[NMeF]Y[dPip(4-aza)]WYLCG-NH2; thioether N-13)
7.00 to 8.00	CCCC[C@H]1C(=O)N(C)[C@@H](CCCC)C(=O)N[C@@H](CCC(=O)O)C(=O)N[C@H](C(=O)NCC(N)=O)CSCC(=O)N[C@@H](Cc2ccc(O)cc2)C(=O)N2CCCC[C@@H]2C(=O)N[C@@H](CC(N)=O)C(=O)N2CCC[C@H]2C(=O)N[C@@H](CN)C(=O)N[C@@H](CCC(=O)O)C(=O)N2C[C@H](O)C[C@H]2C(=O)N[C@@H](Cc2c[nH]c3ccccc23)C(=O)N[C@@H](CO)C(=O)N[C@@H](Cc2cn(CC(=O)O)c3ccccc23)C(=O)N1C [Example 1290] ({CH2CO}-Y[dPip]NP[Dap]E[Hyp]WS[Trp(1-CH2COOH)][NMeNle][NMeNle]ECG-NH2; thioether N-14)
7.00 to 8.00	CCCC[C@H]1C(=O)N(C)CC(=O)N[C@@H](CC(=O)O)C(=O)N[C@@H](C)C(=O)N(C)[C@@H](Cc2ccccc2)C(=O)N[C@@H](Cc2ccc(O)cc2)C(=O)N2CCCC[C@@H]2C(=O)N[C@@H](Cc2c[nH]c3ccccc23)C(=O)N[C@@H](Cc2ccc(O)cc2)C(=O)N[C@@H](CC(C)C)C(=O)N[C@H](C(=O)NCC(N)=O)CSCC(=O)N[C@@H](Cc2ccccc2)C(=O)N(C)[C@@H](Cc2ccccc2)C(=O)N1C [Example 10081] ({CH2CO}-F[NMeF][NMeNle][Sar]DA[NMeF]Y[dPip]WYLCG-NH2; thioether N-13)
7.00 to 8.00	CCCC[C@H]1C(=O)N[C@@H](CC(C)C)C(=O)N[C@H](C(=O)NCC(N)=O)CSCC(=O)N[C@@H](Cc2ccc(O)cc2)C(=O)N(C)[C@@H](C)C(=O)N[C@@H](CC(N)=O)C(=O)N2CCC[C@H]2C(=O)N[C@@H](Cc2c[nH]cn2)C(=O)N[C@@H](CCC(N)=O)C(=O)N2C[C@H](O)C[C@H]2C(=O)N[C@@H](Cc2c[nH]c3ccccc23)C(=O)NCC(=O)N[C@@H](Cc2c[nH]c3ccccc23)C(=O)N(C)[C@@H](CCOC)C(=O)N1C [Example 10137] ({CH2CO}-Y[NMeA]NPHQ[Hyp]WGW[NMehSer](Me)[NMeNle]LCG-NH2; thioether N-14)
8.00 to 9.00	CCCC[C@H]1C(=O)N2CCC[C@@H]2C(=O)N[C@@H](CC(N)=O)C(=O)N[C@@H](C(C)C)C(=O)N(C)[C@@H](Cc2ccccc2)C(=O)N[C@@H](CC(=O)O)C(=O)N2CCCC[C@@H]2C(=O)N[C@@H](Cc2c[nH]c3ccccc23)C(=O)N[C@@H](Cc2ccc(O)cc2)C(=O)N[C@@H](CC(C)C)C(=O)N[C@H](C(=O)NCC(N)=O)CSCC(=O)N[C@@H](Cc2cc(F)c(F)c(F)c2)C(=O)N(C)[C@@H](Cc2ccc(F)cc2)C(=O)N1C [Example 10584] ({CH2CO}-[Phe(3,4,5-F3)][NMePhe(4-F)][NMeNle][dP]NV[NMeF]D[dPip]WYLCG-NH2; thioether N-13)
7.00 to 8.00	CCCC[C@H]1C(=O)N(C)[C@@H](CCCC)C(=O)N[C@@H](CCC(=O)O)C(=O)N[C@H](C(=O)NCC(N)=O)CSCC(=O)N[C@@H](Cc2ccc(O)cc2)C(=O)N(C)[C@@H](C)C(=O)N[C@@H](CC(N)=O)C(=O)N2CCC[C@H]2C(=O)N[C@@H](CO)C(=O)N[C@@H](CC(C)C)C(=O)N2C[C@H](O)C[C@H]2C(=O)N[C@@H](Cc2c[nH]c3ccccc23)C(=O)N[C@@H](CCN)C(=O)N[C@@H](Cc2cn(CC(=O)O)c3ccccc23)C(=O)N1C [Example 6136] ({CH2CO}-Y[NMeA]NPSL[Hyp]W[Dab][Trp(1-CH2COOH)][NMeNle][NMeNle]ECG-NH2; thioether N-14)
7.00 to 8.00	CCCC[C@H]1C(=O)N(C)[C@@H](CCCC)C(=O)N[C@@H](CCC(=O)O)C(=O)N[C@H](C(=O)NCC(N)=O)CSCC(=O)N[C@@H](Cc2ccc(O)cc2)C(=O)N(C)[C@@H](C)C(=O)N[C@@H](CC(N)=O)C(=O)N2CCC[C@H]2C(=O)N[C@@H](CN)C(=O)N[C@@H](CCC(=O)O)C(=O)N2C[C@H](O)C[C@H]2C(=O)N[C@@H](Cc2c[nH]c3ccccc23)C(=O)N[C@@H](CCN)C(=O)N[C@@H](Cc2c[nH]c3ccccc23)C(=O)N1C [Example 5207] ({CH2CO}-Y[NMeA]NP[Dap]E[Hyp]W[Dab]W[NMeNle][NMeNle]ECG-NH2; thioether N-14)
8.00 to 9.00	CCCC[C@H]1C(=O)N(C)[C@@H](C)C(=O)N[C@@H](CCCNC(=N)N)C(=O)NC(C(=O)N[C@@H](CO)C(N)=O)CSCC(=O)N[C@@H](Cc2ccc(O)cc2)C(=O)N(C)[C@@H](C)C(=O)N[C@@H](CC(N)=O)C(=O)N2CCC[C@H]2C(=O)N[C@@H](CO)C(=O)N[C@H](CC(C)C)C(=O)N2C[C@H](O)C[C@H]2C(=O)N[C@@H](Cc2c[nH]c3ccccc23)C(=O)N[C@@H](CO)C(=O)N[C@@H](Cc2c[nH]c3ccccc23)C(=O)N1C (stereo partly drawn) [Example 9123] ({CH2CO}-Y[NMeA]NPS[dL][Hyp]WSW[NMeNle][NMeA]R[ξC]S-NH2; thioether N-14)
8.00 to 9.00	CCCC[C@H]1C(=O)N2CCC[C@@H]2C(=O)N[C@@H](CO)C(=O)N[C@@H](C(C)C)C(=O)N(C)[C@@H](Cc2ccccc2)C(=O)N[C@@H](Cc2ccc(O)cc2)C(=O)N2CSC[C@@H]2C(=O)N[C@@H](Cc2c[nH]c3ccccc23)C(=O)N[C@@H](Cc2ccc(O)cc2)C(=O)N[C@@H](CC(C)C)C(=O)N[C@H](C(=O)NCC(N)=O)CSCC(=O)N[C@@H](Cc2cc(F)c(F)c(F)c2)C(=O)N(C)[C@@H](Cc2ccccc2)C(=O)N1C [Example 10089] ({CH2CO}-[Phe(3,4,5-F3)][NMeF][NMeNle][dP]SV[NMeF]Y[dThz]WYLCG-NH2; thioether N-13)

Same assay, conditions: PD-L1-His 10 nM, PD-1-Ig 20 nM; read-out: HTRF Human PD-L1/PD-1 Binding Assay IC50

pIC50	Structure (SMILES)
8.35	CC(C)[C@@H]1NC(=O)[C@H](CCC(N)=O)NC(=O)[C@@H](C)N(C)C(=O)[C@H](C)N(C)C(=O)[C@H](Cc2ccccc2)N(C)C(=O)[C@H](Cc2cc(F)c(F)c(F)c2)NC(=O)CSC[C@@H](C(=O)NCC(N)=O)NC(=O)[C@H](CCCN)NC(=O)[C@H](Cc2ccc(O)cc2)NC(=O)[C@H](Cc2c[nH]c3ccccc23)NC(=O)[C@@H](C)N(C)C(=O)[C@H](Cc2ccc(O)cc2)NC(=O)[C@H](Cc2ccccc2)N(C)C1=O [Example 9196] ({CH2CO}-[Phe(3,4,5-F3)][NMeF][NMeA][dNMeA]QV[NMeF]Y[dNMeA]WY[Orn]CG-NH2; thioether N-13)
